# Patent publication US6558933B2, “Mutant 1,3-propanediol dehydrogenase” (Genencor International, INC, priority 1999, dated 2003)
# Numbering of substitutions follows the chain as printed. Read-outs that look alike come from different tables or passages of the source.
# Tests used:
# [1] = target: T1, E. blattae 1,3-propanediol dehydrogenase (PDD), wild type, strain ATCC 33429 (Eb_429T), SEQ ID NO: 6 (Shimwellia blattae, UniProt Q3ZL59); assay: Kinetics of wild-type 1,3-propanediol dehydrogenase (PDD), partially purified from E. blattae ATCC 33429; format: biochemical, Escherichia blattae; settings: wild type strain 33429, pooled column fractions with 1 mM DTT
# T1 sequence (Q3ZL59 1-387): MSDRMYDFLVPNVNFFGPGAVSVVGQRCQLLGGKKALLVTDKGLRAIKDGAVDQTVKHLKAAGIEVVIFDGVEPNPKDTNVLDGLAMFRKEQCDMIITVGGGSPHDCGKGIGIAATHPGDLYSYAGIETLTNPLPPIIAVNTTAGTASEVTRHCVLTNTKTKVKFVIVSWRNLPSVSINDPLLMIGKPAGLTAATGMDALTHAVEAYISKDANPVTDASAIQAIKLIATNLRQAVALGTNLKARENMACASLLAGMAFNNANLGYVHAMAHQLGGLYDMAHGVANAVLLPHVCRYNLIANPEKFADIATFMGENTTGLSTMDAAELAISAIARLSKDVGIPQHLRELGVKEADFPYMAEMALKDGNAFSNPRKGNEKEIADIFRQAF
# Experimental: (§1) Strains—Wild type ATCC 33429, E. blattae comprising the mutant PDD ATCC accession number PTA-92.
# (§2) Growth—Cells were grown in a complex medium at 30C 500 ml in a 2800 ml fernbach with shaking at 225 rpm for 20 hr. The medium consists of KH2PO4, 5.4 g/L; (NH4)2SO4, 1.2 g/L; MgSO47H2O, 0.4 g/L; yeast extract, 2.0 g/L; tryptone, 2.0 g/L; and glycerol, 9.2 g/L in tap water. The pH was adjusted to 7.1 with KOH before autoclaving (Honda, et al., 1980, J. Bacteriol, 143:1458-1465).
# (§3) Extract prep—Cells were harvested by centrifugation with care to avoid anaerobic conditions. Pellets were resuspended in 100 mM Tricine pH 8.2 containing 50 mM KCl and 1 mM DTT. Cells were disrupted by passage through a French pressure cell. Crude extracts were clarified by centrifugation at 20 K×g for 20 min followed by 100 K×g for 1 hr to yield the high speed supernatant (HSS) fraction.
# (§4) Assays—the assay for PDD was performed as described by Johnson, E. A. et al., 1987, J. Bacteriol. 169:2050-2054.
# Partial purification of PDD—HSS was separated on a 16×100 Poros 20HQ column. The buffers were A, 60 mM HEPES, pH 7.4 containing 100 uM MnCl and B, A buffer containing 500 mM KCl. The column was loaded and developed at 10 ml/min. The gradient was 10 CV wash. A linear gradient to 70% B in 10 CV, and 1 CV to 100% B. The activity was detected in the very early fractions of the gradient. […]
# [2] = target: T2, E. blattae 1,3-propanediol dehydrogenase (PDD), mutant His 105 to Leu, ATCC PTA-92 (Eb_GEBT), SEQ ID NO: 2 (Shimwellia blattae, UniProt Q3ZL59, H105L); assay: Kinetics of mutant 1,3-propanediol dehydrogenase (PDD), partially purified from E. blattae 33429 derivative PTA-92; format: biochemical, Escherichia blattae
# T2 construct: concentrated on PM30 membrane
# T2 sequence (Q3ZL59 1-387 H105L): T1 sequence (Q3ZL59 1-387) with H105L
# Experimental: as §1, §2, §3, §4
# Partial purification of PDD—HSS was separated on a 16×100 Poros 20HQ column. The buffers were A, 60 mM HEPES, pH 7.4 containing 100 uM MnCl and B, A buffer containing 500 mM KCl. The column was loaded and developed at 10 ml/min. The gradient was 10 CV wash. A linear gradient to 70% B in 10 CV, and 1 CV to 100% B. The activity was detected in the very early fractions of the gradient. Pooled column fractions of the 33429 strain were used as collected for assays after the addition of additional DTT to 1 mM. The active fractions from the E. blattae 33429 derivative strain assigned designation PTA-92 were pooled and concentrated on a PM30 membrane and used as concentrated after the addition of additional 1 mM DTT.
SMILES,Km ([1]; read-out: Km (NAD)) [mM],Km for NAD (change in words) ([2]; mutant PDD),Km ([1]; read-out: Km (Propanediol)) [mM],"Km for 1,3-propanediol (change in words) ([2]; mutant PDD)","Km of the mutant PDD relative to Km of wild-type PDD for 1,3-propanediol ([2]; mutant PDD vs wild-type PDD)"
NC(=O)c1ccc[n+]([C@@H]2O[C@H](COP(=O)([O-])OP(=O)(O)OC[C@H]3O[C@@H](n4cnc5c(N)ncnc54)[C@H](O)[C@@H]3O)[C@@H](O)[C@H]2O)c1 [NAD],0.057,altered,,,
"OCCCO [1,3-propanediol]",,,28,altered,about 3 times
